Test results from US20240309004A1, “SELECTIVE CYCLIN-DEPENDENT KINASE INHIBITORS AND METHODS OF THERAPEUTIC USE THEREOF” (ViroKyne Therapeutics, LLC, priority 2021, published 2024).
pEC50, pIC50: −log10 of the molar value.

What was measured:
[1] = Metabolic stability in mice liver microsomes; conditions: mice liver microsomes, 1 μM compound, 1 mM NADPH, 60 min
Description: Potassium phosphate buffer (Kphos) was prepared by adding 0.647 g potassium phosphate monobasic (KH2PO4) and 3.527 g potassium phosphate dibasic (K2HPO4) to 400 mL of Milli-Q water. pH of the buffer was adjusted to 7.4 and volume was made up to 500 mL.
Stock solutions of the test compounds were prepared in DMSO at a concentration of 1 mM.
To this microsomal mix 1.42 μL (1 mM) of test compound and positive control were spiked, from this mix 70 μL was transferred to 96 well plate and pre-incubated at 37° C. for 5 min. […] The plates were centrifuged at 4000 RPM for 15 min and 100 μL aliquots were submitted for analysis by LC-MS/MS.
Samples were monitored for parent compound disappearance in MRM mode using LC-MS/MS. The LC-MS/MS conditions and MRM chromatogram will be provided as per client request.
The peak area ratios of analyte versus internal standard were used to calculate the % remaining at the end of 60 minutes in presence NADPH.

[2] = Cytotoxicity concurrent with HHV-6B primary assay; format: cell-based; conditions: human, MOLT-3 cells
[3] = Cytotoxicity concurrent with HHV-8 primary assay; format: cell-based; conditions: human, BCBL-1 cells
[4] = test system: Human papillomavirus 11 strain HE611260.1; experiment: Human papillomavirus 11 primary assay (replicon), C-33 A cells; format: cell-based; conditions: strain HE611260.1, C-33 A cells
From the text: (§1) An HPV11 replicon assay was developed and expresses the essential E1 and E2 proteins from the native promoter. The E2 origin binding protein interacts with the virus origin of replication and recruits the E1 replicative helicase which unwinds the DNA and helps to recruit the cellular DNA replication machinery (including DNA polymerases, type I and type II topoisomerases, DNA ligase, single-stranded DNA binding proteins, proliferating cell nuclear antigen). The replication complex then drives the amplification of the replicon which can be assessed by the expression of a destabilized NanoLuc reporter gene carried on the replicon. In this assay, the replicon (pMP619) is transfected into C-33 A cells grown as monolayers in 384-well plates. At 48 h post transfection, the enzymatic activity of the destabilized NanoLuc reporter is assessed with NanoGlo reagent. […] . Beadle et al., 2016.

[5] = test system: Human herpes virus 8 strain BCBL-1; experiment: Human herpes virus 8 primary assay, BCBL-1 cells; format: cell-based, Human Herpesvirus 8; conditions: Human gammaherpesvirus 8, BCBL1, strain BCBL-1, BCBL-1 cells
[6] = target: CDK9/cyclin T1 (Homo sapiens (Human), UniProt P50750); experiment: Kinase activity assay, CDK9/cyclin T1; format: biochemical; conditions: Table 3.1.2; 10 μM ATP; 10-dose triplicate starting at 9.827 μM; unit not printed (table 3.1.1 prints M); read-out: CDK9/cyclin T1 kinase activity (IC50)
Chain of CDK9/cyclin T1 (P50750 whole entry): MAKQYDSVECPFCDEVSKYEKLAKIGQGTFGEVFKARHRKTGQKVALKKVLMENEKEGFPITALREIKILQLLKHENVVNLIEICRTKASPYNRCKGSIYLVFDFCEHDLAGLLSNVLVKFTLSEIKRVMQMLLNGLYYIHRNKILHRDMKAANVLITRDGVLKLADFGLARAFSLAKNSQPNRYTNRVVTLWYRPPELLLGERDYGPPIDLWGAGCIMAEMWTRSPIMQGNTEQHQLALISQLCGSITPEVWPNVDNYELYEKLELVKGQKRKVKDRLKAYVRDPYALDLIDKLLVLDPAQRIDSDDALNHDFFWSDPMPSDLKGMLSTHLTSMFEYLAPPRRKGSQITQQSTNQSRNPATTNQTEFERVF
Chain of CDK9/cyclin T1 (O60563 whole entry partner): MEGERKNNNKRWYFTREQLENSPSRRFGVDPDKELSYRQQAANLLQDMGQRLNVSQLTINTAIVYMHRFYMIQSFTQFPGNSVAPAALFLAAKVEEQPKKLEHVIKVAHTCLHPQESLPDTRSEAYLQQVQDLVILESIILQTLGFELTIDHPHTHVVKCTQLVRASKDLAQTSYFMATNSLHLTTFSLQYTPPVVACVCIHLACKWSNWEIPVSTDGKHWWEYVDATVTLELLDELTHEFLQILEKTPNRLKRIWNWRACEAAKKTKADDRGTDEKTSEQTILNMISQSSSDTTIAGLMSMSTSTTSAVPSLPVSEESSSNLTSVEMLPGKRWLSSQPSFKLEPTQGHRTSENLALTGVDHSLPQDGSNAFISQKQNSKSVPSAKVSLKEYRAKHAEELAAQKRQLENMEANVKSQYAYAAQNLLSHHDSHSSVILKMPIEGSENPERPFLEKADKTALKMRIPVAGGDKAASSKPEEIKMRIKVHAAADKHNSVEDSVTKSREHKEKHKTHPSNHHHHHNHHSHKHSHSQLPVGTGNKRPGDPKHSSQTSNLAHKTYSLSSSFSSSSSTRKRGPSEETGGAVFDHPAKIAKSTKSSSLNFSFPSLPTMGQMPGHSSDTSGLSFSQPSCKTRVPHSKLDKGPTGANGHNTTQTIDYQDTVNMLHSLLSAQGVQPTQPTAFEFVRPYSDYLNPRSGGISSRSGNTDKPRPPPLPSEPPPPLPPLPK

[7] = Cytotoxicity concurrent with HCMV AD169 primary assay; format: cell-based, human; conditions: human, CC50
[8] = test system: HCMV strain AD169; experiment: HCMV primary assay (CPE), strain AD169, HFF cells; format: cell-based, Human Cytomegalovirus; conditions: Human betaherpesvirus 5, HCMV primary assay, virus strain AD169, HFF cells
Description: The antiviral activity of the compound against HCMV in the described Primary assay was measured by treating primary Human foreskin fibroblast (HFF) cells infected with HCMV with a range of compound concentrations—description of methods for this assay can be found in section 1.3.2.1. […] . Additional tested assay parameters in this Primary assay can be found in Table 3.2.1 and include EC90, S150, and S190 values—descriptions of those data points can be found in section 3.2.1.

[9] = Cytotoxicity concurrent with HPV11 primary assay; format: cell-based; conditions: human, C-33 A cells
From the text: as §1

[10] = test system: Human herpes virus 6B strain Z29; experiment: Human herpes virus 6B primary assay, strain Z29, MOLT-3 cells; format: cell-based, Human Herpesvirus 6B; conditions: Human betaherpesvirus 6B

Fc1ccc2c(c1)nn1cnc(NC3CCOCC3)cc21 [VKT-320, 7-fluoro-N-(tetrahydro-2H-pyran-4-yl)pyrimido[1,6-b]indazol-3-amine]
% Remaining at 60 min [1]: 37% | CC50 at 7 d [2]: 50 µM | CC50 [3]: 50 µM | pEC50 [4]: 5.10 | EC90 [4]: 19.8 µM | pEC50 [5]: 4.66 | EC90 [5]: 44.2 µM | pIC50 [6]: 5.77 | CC50 [7]: 38.5 µM | pEC50 ([8]; read-out: EC50): 5.00 | EC90 ([8]; read-out: EC90): 10 µM | CC50 [9]: 50 µM | pEC50 [10]: 5.05 | EC90 [10]: 32.6 µM
